From patent US10577362B2, “Substituted 2, 4-diamino-quinoline derivatives for use in the treatment of proliferative diseases” (GENOSCIENCE PHARMA, priority 2016, dated 2020)

Assays:
[1] = test system: MOLM-14 (acute myeloid leukemia) cell line; assay: CellTiter-Glo luminescent cell viability assay, MOLM-14; assay type: cell-based, human; conditions: Homo sapiens; for viability at 4 µM: MOLM-14, compound at 4 μM; for viability at 4 µM / viability at 10 µM: 72 h; for viability at 10 µM: MOLM-14, compound at 10 μM; for EC50: MOLM-14 cell line, 72 h incubation, CellTiter-Glo, read-out: EC50, growth inhibition of MOLM-14
Procedure, shortened: (§1)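 Adherent cells grow overnight, or suspension cells are seeded 1 h ahead; compound dilutions are then added and plates incubated 72 h at 37 °C. After 30 min at room temperature, CellTiter-Glo reagent is added and luminescence recorded. EC50 derives from signal relative to diluent control.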

[2] = test system: A375 (malignant melanoma) cell line; assay: CellTiter-Glo luminescent cell viability assay, A375; assay type: cell-based, human; conditions: Homo sapiens, A-375; for viability at 4 µM: A375, compound at 4 μM; for viability at 4 µM / viability at 10 µM: 72 h; for viability at 10 µM: A375, compound at 10 μM; for EC50: A375 cell line, 72 h incubation, CellTiter-Glo, read-out: EC50, growth inhibition of A375
Procedure, shortened: (§2)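 Luminescent signal, normalised to diluent-treated cultures, defines % viability; EC50 is the concentration lowering it to 50%. Cells had been exposed to compound for 72 h at 37 °C in medium with 10% FBS, at a constant H2O or DMSO percentage.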

[3] = test system: HCT-116 (colorectal carcinoma) cell line; assay: CellTiter-Glo luminescent cell viability assay, HCT-116; assay type: cell-based, human; conditions: Homo sapiens; for viability at 4 µM: HCT-116, compound at 4 μM; for viability at 4 µM / viability at 10 µM: 72 h; for viability at 10 µM: HCT-116, compound at 10 μM; for EC50: HCT-116 cell line, 72 h incubation, CellTiter-Glo, read-out: EC50, growth inhibition of HCT-116
Procedure, shortened: as §2

[4] = test system: Huh7 (hepatocellular carcinoma) cell line; assay: CellTiter-Glo luminescent cell viability assay, Huh7; assay type: cell-based, human; conditions: Homo sapiens, Huh-7; for viability at 4 µM: Huh7, compound at 4 μM; for viability at 4 µM / viability at 10 µM: 72 h; for viability at 10 µM: Huh7, compound at 10 μM; for EC50: Huh7 cell line, 72 h incubation, CellTiter-Glo, read-out: EC50, growth inhibition of Huh7
Procedure, shortened: as §1

[5] = test system: 786-O (renal adenocarcinoma) cell line; assay: CellTiter-Glo luminescent cell viability assay, 786-O; assay type: cell-based, human; conditions: Homo sapiens, 786-0; for viability at 4 µM / viability at 10 µM: 786-O, 72 h; for viability at 4 µM: compound at 4 μM; for viability at 10 µM: compound at 10 μM; for EC50: 786-O cell line, 72 h incubation, CellTiter-Glo, read-out: EC50, growth inhibition of 786-O
Procedure, shortened: as §2

[6] = test system: HepG2 (hepatocellular carcinoma) cell line; assay: CellTiter-Glo luminescent cell viability assay, HepG2; assay type: cell-based, human; conditions: Homo sapiens; for viability at 4 µM / viability at 10 µM: HepG2, HepG, 72 h; for viability at 4 µM: compound at 4 μM; for viability at 10 µM: compound at 10 μM; for EC50: HepG2 cell line, 72 h incubation, CellTiter-Glo, read-out: EC50, growth inhibition of HepG2
Procedure, shortened: as §1

[7] = test system: PANC-1 (prancreatic carcinoma) cell line; assay: CellTiter-Glo luminescent cell viability assay, PANC-1; assay type: cell-based; conditions: Homo sapiens; for viability at 4 µM: PANC-1, 4 μM; for viability at 4 µM / viability at 10 µM: 72 h, % of signal of diluent-treated cultures; for viability at 10 µM: PANC-1, 10 μM; for EC50: PANC-1 cell line, 72 h incubation, CellTiter-Glo, read-out: EC50 (growth inhibition assay of PANC-1 cell line)
Procedure, shortened: as §1

EC50 [1] | EC50 [2] | EC50 [3] | EC50 [4] | EC50 [5] | EC50 [6] | Structure (SMILES) | viability at 4 µM [1] | viability at 10 µM [1] | viability at 4 µM [2] | viability at 10 µM [2] | viability at 4 µM [3] | viability at 10 µM [3] | viability at 4 µM [4] | viability at 10 µM [4] | viability at 4 µM [5] | viability at 10 µM [5] | viability at 4 µM [6] | viability at 10 µM [6] | viability at 4 µM [7] | viability at 10 µM [7] | also measured
 |  |  |  |  |  | N#Cc1c(NCc2ccc(Cl)cc2)nc2ccccc2c1N1CCC(Oc2ccccc2)CC1 [Compound 2940CN, 2-(4-chlorobenzylamino)-3-cyano-4-(4-phenoxypiperidin-1-yl)quinoline] | 102% | 89.1% | 104% | 98.3% | 92.9% | 82.9% | 97.3% | 88.9% | 97.1% | 91.7% | 89.7% | 79.4% | 103% | 102% | 
0.5 to 5 µM | 0.5 to 5 µM | 0.5 to 5 µM | 0.5 to 5 µM | 0.5 to 5 µM | 0.5 to 5 µM | CNC1CCN(c2c(C#N)c(NCc3ccc(Cl)cc3)nc3ccccc23)CC1 [Compound 3172CN, 2-(4-chlorobenzylamino)-3-cyano-4-[4-(methylamino)piperidin-1-yl]quinoline] | 0.5% | 0.4% | 0.4% | 0.3% | 0.2% | 0.1% | 30.7% | 0.4% | 0.5% | 0.3% | 0.5% | 0.4% | 56.4% | 0.5% | EC50 [7]: 5 to 10 µM
 |  |  |  |  |  | Cc1nnc(Nc2nc3ccccc3c(N3CCC(NC(C)(C)C)CC3)c2C#N)o1 [Compound 3272CN, 2-[(5-methyl-1,3,4-oxadiazol-2-yl)amino]-3-cyano-4-[4-(tert-butylamino)piperidin-1-yl]quinoline] | 82.3% | 20.7% | 62.3% | 21.2% | 13.9% | 5% | 92.6% | 67.2% | 79% | 48.9% | 97.7% | 61.2% | 84.7% | 65.3% | 
 |  |  |  |  |  | CCN(CC)C1CCN(c2c(C#N)c(NCc3ccc(Cl)cc3)nc3ccccc23)C1 (centres unmarked) [Compound 126CN, 2-(4-chloro-benzylamino)-3-cyano-4-[3-(diethylamino)pyrrolidin-1-yl]quinoline] | 105% | 99.6% | 92.5% | 89.9% | 97% | 93.3% | 98.9% | 96.1% | 91.2% | 87.6% | 104% | 102% | 106% | 103% | 
0.5 to 5 µM | 0.5 to 5 µM | 0.5 to 5 µM | 0.5 to 5 µM | 0.5 to 5 µM | 0.5 to 5 µM | CN1CCC(NC2CCCN(c3c(C#N)c(NCc4ccc(Cl)cc4)nc4ccccc34)C2)CC1 (centres unmarked) [Compound 3162CN, 2-(4-chlorobenzylamino)-3-cyano-4-{3-[(1-methylpiperidin-4-yl)amino]piperidin-1-yl}quinoline] | 0.5% | 0.3% | 0.4% | 0.2% | 0.3% | 0.2% | 0.5% | 0.2% | 0.5% | 0.3% | 0.3% | 0.2% | 51.6% | 0.4% | 
5 to 10 µM | 0.5 to 5 µM | 0.5 to 5 µM | 0.5 to 5 µM | 0.5 to 5 µM | 0.5 to 5 µM | CNC1CCN(c2c(C#N)c(NCc3ccc(Cl)cc3)nc3ccccc23)C1 (centres unmarked) [Compound 3192CN, 2-(4-chloro-benzylamino)-3-cyano-4-[3-(methylamino)pyrrolidin-1-y]quinoline] | 0.6% | 0.3% | 104% | 0.4% | 57.3% | 0.2% | 78% | 0.4% | 0.4% | 0.2% | 59.5% | 0.4% | 77.1% | 1.5% | EC50 [7]: 5 to 10 µM
 |  |  |  |  |  | CC(C)(C)NC1CCN(c2c(C#N)c(Nc3ccccn3)nc3ccccc23)CC1 [Compound 3278CN, 2-(pyridin-2-ylamino)-3-cyano-4-[4-(tert-butylamino)piperidin-1-yl]quinoline] | 96.1% | 88.6% | 90.6% | 45.2% | 85.7% | 7.2% | 95% | 51% | 90.2% | 68.2% | 87.1% | 53.2% | 102% | 84.2% | 
 |  |  |  |  |  | CC(C)(C)NC1CCN(c2c(C#N)c(NCc3cccnc3)nc3ccccc23)CC1 [Compound 3304CN, 2-[(pyridin-3-ylmethyl)amino]-3-cyano-4-[4-(tert-butylamino)piperidin-1-yl]quinoline] | 94.2% | 81% | 99.5% | 74.4% | 70.6% | 41.6% | 93.3% | 82.8% | 98.9% | 80.7% | 91.2% | 83.4% | 99.3% | 98.7% | 
5 to 10 µM | 0.5 to 5 µM | 0.5 to 5 µM | 5 to 10 µM | 0.5 to 5 µM | 5 to 10 µM | COc1ccc(Nc2nc3ccccc3c(N3CCC(NC(C)(C)C)CC3)c2C#N)cc1 [Compound 3252CN, 2-(4-methoxyphenylamino)-3-cyano-4-[4-(tert-butylamino)piperidin-1-yl]quinoline] | 80.2% | 0.7% | 20% | 0.2% | 2.5% | 0.2% | 80.6% | 2.9% | 74.2% | 0.3% | 68.4% | 0.3% | 94.7% | 47.9% | EC50 [7]: 5 to 10 µM
 |  |  |  |  |  | CC(C)(C)OC(=O)NC1CCCN(c2c(C#N)c(NCc3ccc(Cl)cc3)nc3ccccc23)C1 (centres unmarked) [Compound 154CN] | 112% | 113% | 96.2% | 88.5% | 98.8% | 87.2% | 101% | 93.5% | 94.1% | 82.3% | 105% | 97.5% | 107% | 99% | 
5 to 10 µM | 0.5 to 5 µM | 0.5 to 5 µM | 0.5 to 5 µM | 0.5 to 5 µM | 0.5 to 5 µM | CC(C)(C)NC1CCN(c2c(C#N)c(NCc3ccc(C(F)(F)F)cc3)nc3ccccc23)CC1 [Compound 3292CN, 2-[4-(trifluoromethyl)benzylamino]-3-cyano-4-[4-(tert-butylamino)piperidin-1-yl]quinoline] | 54.7% | 0.3% | 0.3% | 0.2% | 0.3% | 0.1% | 10.2% | 0.2% | 0.5% | 0.2% | 20.5% | 0.2% | 75.6% | 25% | EC50 [7]: 5 to 10 µM
